Data on two molecules can be found in patent US10632081B2, “Intralymphatic delivery of hyaluronan nanoparticle for cancer metastasis” (priority 2015, dated 2020).

The test system of data set [1] is SAS-LN. Briefly: Anti-lymphatic metastasis in spontaneous lymphatic metastasis model of SAS-LN. Particulars: iv, 3 mg Pt/kg, qw for 5 weeks, cervical lymph nodes by IVIS. The data set is classed as in vivo, BALB/c nude mice. The method, then: SAS-LN cells transfected with luciferase were suspended in PBS and were orthotropic implanted (2×10^5 cells per mouse) into the tongue of female BALB/c nude mice (6 to 8 weeks old). SAS-LN tumors were allowed to grow for 1 week. Cisplatin was administered by intravenous injection at dose of 3 mg Pt/kg, and CPHC008 was administered by subcutaneous injection into the buccal site at dose of 3 mg Pt/kg (n=10/group). All test articles were administrated once a week for 5 weeks. After sacrifice, cervical lymph nodes were collected to evaluate metastasis by bioluminescence imagine using IVIS.

Data set [2] is described as follows: Local toxicity assessment (Primary Dermal Irritation Index). In kind it is in vivo, BALB/c mice. Particulars: sc foot pad. The procedure:
Mice were weighted and grouped into (1) vehicle; (2) 0.3 mg Pt/kg oxaliplatin; (3) 1 mg Pt/kg oxaliplatin; (4) 3 mg Pt/kg Oxaliplatin; (5) 0.3 mg Pt/kg PtHC604; (6) 1 mg Pt/kg PtHC604; (7) 3 mg Pt/kg PtHC604, n=6/group. Each animal was treated once weekly for 4 weeks. The skin toxicities in the injection site were measured by erythema and oedema grading (Table 1). The skin toxicities potential was evaluated using Primary Dermal Irritation Index (PDII) by combining erythema and oedema grading, and classified into non-irritant, negligible-irritant, mild irritant, moderate irritant, and severe irritant (Table 2).

Data set [3] can be described thus: Lymphatic delivery of PtHC604 by subcutaneous injection in normal rats. The data set is classed as in vivo, SD rats. Particulars: sc mammary fat pad, 1 mg Pt/kg. The method, then: To evaluate the lymphatic delivery, SD rats were placed under isoflurane anesthesia and injected subcutaneously into the right mammary fat pad with PtHC604, PtHC16001 or oxaliplatin (1 mg Pt/kg). […] Right axillary lymph nodes, sciatic nerves and plasma were harvested and stored at −80° C. until analysis. Platinum concentrations in lymph nodes and sciatic nerves were analyzed by ICP-MS. Platinum concentration in plasma was analyzed by ICP-OES.

For data set [4], the system named is B16-F10-luc2 cells. Briefly: In vitro cytotoxicity assay (MTT). The data set is classed as cell-based, Murine. Particulars: 48 h treatment. The procedure: B16-F10-luc2 cells were cultured in RPMI1640 medium supplemented with 10% heat-inactivated fetal bovine serum and maintained in a humidified 37° C., 5% CO2 incubator. B16-F10-luc2 cells were seeded on 96-well plate for 2×10^3 cells per well and incubated overnight at 37° C. Cells were treated with phosphate-buffered saline (PBS), oxaliplatin, or PtHC604 for 48 hours at 37° C. Cell viability was determined by MTT assay.

Data set [5] in a line: Residual drug in injection site evaluation. The conditions noted are these: 1 mg Pt/kg.
Protocol: After 4, 24, 48, and 96 hours post-injection, animals were euthanized by CO2. Each foot was harvested and stored at −80° C. until analysis. Platinum concentration in each foot was analyzed by ICP-MS.
In data set [6] the test system is B16-F10-luc2. The data set can be described thus: Survival rate and anti-lymphatic metastasis in spontaneous lymphatic metastasis model of B16-F10-luc2. The data set is classed as in vivo, C57BL/6 mice. The conditions noted are these: for volume of popliteal lymph node (mean±SEM): 3 mg Pt/kg twice a week for 2 weeks. An excerpt:
Prior inoculation of the cells, B16-F10-luc2 cells were harvested during the exponential growth period and washed twice with sterile PBS, and then suspended in PBS with 50% Matrigel (BD Biosciences). Respective 3×10^5 B16-F10-luc2 cells were implanted subcutaneously into the right hind foot pad of female C57BL/6 mice (6 to 8 weeks old). B16-F10-luc2 tumors were allowed to grow for 5 weeks, and the tumor cells spontaneously metastasized to regional popliteal lymph node. Lymphatic metastasis was confirmed by bioluminescence imagine using IVIS spectrum. Oxaliplatin was administered by intravenous or subcutaneous injection at the dose of 3 mg Pt/kg, and PtHC604 was administered by subcutaneous injection into the footpad at the same dose of 3 mg Pt/kg. All test articles were administrated twice a week for 2 weeks (n=6-8/group in one independent experiment). Tumor size was measured by calipers and converted into tumor volume using the following formula: V=LS^2/2 (where L is the longest diameter and S is the shortest diameter). Death was defined when mice dead or tumor volumes were >3000 mm^3. At the end of study, mice were sacrificed and the popliteal lymph node was collected for measurement. The volume of lymph node was measured by the same formula above: V=LS^2/2.

The nature of data set [7]: Lymphatic delivery of PtHC604 by different injection routes. In kind it is in vivo, Sprague Dawley (SD) rats. The conditions noted are these: iv, 9 mg Pt/kg, right axillary lymph node Pt. The procedure: […] […] […] Right axillary lymph nodes were harvested and stored at −80° C. until analysis. Platinum concentration in lymph nodes was analyzed by ICP-MS (THERMO XSERIES II).

The mark [8] stands for this setting: 0.3 mg Pt/kg once weekly for 4 weeks.
The mark [9] stands for this setting: 1 mg Pt/kg once weekly for 4 weeks.
[10] abbreviates: 3 mg Pt/kg once weekly for 4 weeks.

As for `N.N.[Cl][Pt][Cl]` [Cisplatin], the “Lymphatic metastasis (metastatic ratio)” value in data set [1] and in data set [1] (listed as cisplatin) was 78% each time.
The IC50 is the concentration needed to halve the response being measured. Higher therefore signals weaker potency. Take `O=C1[O][Pt]2([NH][C@@H]3CCCC[C@H]3[NH]2)[O]C1=O` [Oxaliplatin, oxaliplatin]: the “Classification of dermal irritation” value is “Non-irritation” in data set [2] (setting [8]); “Mild irritation” in data set [2] (setting [9]); “Severe irritation” in data set [2] (setting [10]); “Severe skin toxicities” in data set [2] (3 mg Pt/kg once weekly for 4 weeks, listed as oxaliplatin). In addition, the results for the Dermal irritation index in data set [2] (setting [8]), in data set [2] (setting [9]) and in data set [2] (setting [10]) were 0, 0.5 and 4.8, respectively. For the same molecule, the “AUC (96 h) (h * ug/g) Lymph node” value in data set [3] (axillary lymph node Pt) worked out at 66.0 µg·h/g. For the same molecule, in data set [3] (plasma Pt), the “AUC (96 h) (h * ug/g) Plasma” value was 6.7 µg·h/g. Also, the “AUC (96 h) (h * ug/g) Sciatic nerve” value in data set [3] (sciatic nerve Pt) was 12.0 µg·h/g. In addition, in data set [4], the IC50 is 0.65 µM. In data set [5] (24 hour after sc footpad injection), the “residual Pt detected in the foot” value was found to be 29%. Moreover, the “Pt exposure in the foot” value in data set [5] (sc footpad injection, up to 96 hours) amounted to 4089 µg·h/mL. Moreover, the “volume of popliteal lymph node (mean±SEM)” value in data set [6] (intravenous injection) worked out at 72.7±46.2 mm^3; in data set [6] (subcutaneous injection), 129.2±103.9 mm^3. In data set [6] (iv, 3 mg Pt/kg, biw, mice bearing metastatic melanoma), this molecule had a Median survival days of 7 days. For the same molecule, in data set [7], the “Lymphatic AUC0-96 h” value was 468.7 µg·h/g.
